ChEMBL document CHEMBL4699613, “Synthesis and biological evaluation of indolylglyoxylamide bisphosphonates, antimitotic microtubule-targeting derivatives of indibulin with improved aqueous solubility” (Bioorg Med Chem Lett, 2020)

Assays:
DU-145 = test: Cytotoxicity against human DU-145 cells assessed as cell growth inhibition; type: functional, cell-based
A549 = test: Cytotoxicity against human A549 cells assessed as cell growth inhibition; type: functional, cell-based
SK-OV-3 = test: Cytotoxicity against human SK-OV-3 cells assessed as cell growth inhibition; type: functional, cell-based
A-375 = test: Cytotoxicity against human A-375 cells assessed as cell growth inhibition; type: functional, cell-based
HCT-116 = test: Cytotoxicity against human HCT-116 cells assessed as cell growth inhibition; type: functional, cell-based
PC-3 = test: Cytotoxicity against human PC-3 cells assessed as cell growth inhibition; type: functional, cell-based
HFF = test: Cytotoxicity against human HFF cells assessed as cell growth inhibition; type: cell-based
T47D = test: Cytotoxicity against human T47D cells assessed as cell growth inhibition; type: functional, cell-based
MCF7 = test: Cytotoxicity against human MCF7 cells assessed as cell growth inhibition measured after 24 to 48 hrs by SRB assay; type: functional, cell-based
Paracentrotus lividus [1] = test: Antimitotic activity against sea urchin embryo assessed as cleavage arrest measured 3 to 6 hrs post-fertilization by light microscopy analysis; type: functional; conditions: time hrs 3-6
Paracentrotus lividus [2] = test: Induction of microtubule destabilization in sea urchin embryo assessed as embryo spinning measured after 0.5 to 20 hrs; type: tissue-based; conditions: time hrs 0.5-20
Paracentrotus lividus [3] = test: Antimitotic activity against sea urchin embryo assessed as cleavage alteration measured 3 to 6 hrs post-fertilization by light microscopy analysis; type: functional; conditions: time hrs 3-6
[4] = Aggregation property of the compound in water; type: physicochemical; conditions: buffer
Paracentrotus lividus [5] = test: Antimitotic activity against sea urchin embryo assessed as cleavage alteration measured 2.5 to 6 hrs post-fertilization by light microscopy analysis; type: functional; conditions: time hrs 2.5-6
Paracentrotus lividus [6] = test: Antimitotic activity against sea urchin embryo assessed as cleavage arrest measured 2.5 to 6 hrs post-fertilization by light microscopy analysis; type: functional; conditions: time hrs 2.5-6
[7] = Aqueous solubility of the compound at physiological pH by H-NMR analysis; type: physicochemical; conditions: aqueous solution
[8] = Cytotoxicity against human KKU-100 cells assessed as cell growth inhibition after 48 hrs; type: functional, cell-based; conditions: KKU100, 48 h
Paracentrotus lividus [9] = test: Antimitotic activity against sea urchin embryo assessed as cleavage alteration measured 2.5 to 5.5 hrs post-fertilization using compound stored for 1 hr in 96% EtOH at room temperature by light microscopy analysis; type: functional; conditions: time hrs 2.5-5.5
Paracentrotus lividus [10] = test: Antimitotic activity against sea urchin embryo assessed as cleavage arrest measured 2.5 to 5.5 hrs post-fertilization using compound stored for 1 hr in 96% EtOH at room temperature by light microscopy analysis; type: functional; conditions: time hrs 2.5-5.5
SiHa = test: Cytotoxicity against human SiHa cells assessed as cell growth inhibition; type: functional, cell-based
HeLa = test: Cytotoxicity against human HeLa cells assessed as cell growth inhibition; type: functional, cell-based
PANC-1 = test: Cytotoxicity against human PANC-1 cells assessed as cell growth inhibition measured after 72 hrs by MTT assay; type: functional, cell-based; conditions: PANC-1, 72 h
BXPC-3 = test: Cytotoxicity against human BXPC-3 cells assessed as cell growth inhibition measured after 72 hrs by MTT assay; type: functional, cell-based; conditions: BXPC-3, 72 h
Ca-Ski = test: Cytotoxicity against human Ca-Ski cells assessed as cell growth inhibition; type: functional, cell-based
CFPAC-1 = test: Cytotoxicity against human CFPAC-1 cells assessed as cell growth inhibition measured after 72 hrs by MTT assay; type: functional, cell-based; conditions: CFPAC-1, 72 h
[11] = Selectivity ratio of IC50 for human HFF cells to IC50 for human A-375 cells assessed as cell growth inhibition
Paracentrotus lividus [12] = test: Antimitotic activity against sea urchin embryo assessed as cleavage arrest measured 2.5 to 5.5 hrs post-fertilization using compound stored for 2.5 days in 96% EtOH at room temperature by light microscopy analysis; type: functional; conditions: time hrs 2.5-5.5
Paracentrotus lividus [13] = test: Antimitotic activity against sea urchin embryo assessed as cleavage arrest measured 2.5 to 5.5 hrs post-fertilization using compound stored for 13 hrs in 96% EtOH at room temperature by light microscopy analysis; type: functional; conditions: time hrs 2.5-5.5
Paracentrotus lividus [14] = test: Antimitotic activity against sea urchin embryo assessed as cleavage alteration measured 2.5 to 5.5 hrs post-fertilization using compound stored for 4.5 days in 96% EtOH at room temperature by light microscopy analysis; type: functional; conditions: time hrs 2.5-5.5
Paracentrotus lividus [15] = test: Antimitotic activity against sea urchin embryo assessed as cleavage alteration measured 2.5 to 5.5 hrs post-fertilization using compound stored for 2.5 days in 96% EtOH at room temperature by light microscopy analysis; type: functional; conditions: time hrs 2.5-5.5
Paracentrotus lividus [16] = test: Antimitotic activity against sea urchin embryo assessed as cleavage arrest measured 2.5 to 5.5 hrs post-fertilization using compound stored for 4.5 days in 96% EtOH at room temperature by light microscopy analysis; type: functional; conditions: time hrs 2.5-5.5
Paracentrotus lividus [17] = test: Antimitotic activity against sea urchin embryo assessed as cleavage alteration measured 2.5 to 5.5 hrs post-fertilization using compound stored for 13 hrs in 96% EtOH at room temperature by light microscopy analysis; type: functional; conditions: time hrs 2.5-5.5
Paracentrotus lividus [18] = test: Antimitotic activity against sea urchin embryo assessed as cleavage alteration measured 2.5 to 5.5 hrs post-fertilization using compound stored for 4 days in 96% EtOH at room temperature by light microscopy analysis; type: functional; conditions: time hrs 2.5-5.5
Paracentrotus lividus [19] = test: Antimitotic activity against sea urchin embryo assessed as cleavage arrest measured 2.5 to 5.5 hrs post-fertilization using compound stored for 4 days in 96% EtOH at room temperature by light microscopy analysis; type: functional; conditions: time hrs 2.5-5.5
Paracentrotus lividus [20] = test: Antimitotic activity against sea urchin embryo assessed as cleavage arrest measured 2.5 to 5.5 hrs post-fertilization using compound stored for 1 month in 96% EtOH at room temperature by light microscopy analysis; type: functional; conditions: time hrs 2.5-5.5
Paracentrotus lividus [21] = test: Antimitotic activity against sea urchin embryo assessed as cleavage arrest measured 2.5 to 5.5 hrs post-fertilization using compound stored for 2 days in 96% EtOH at room temperature by light microscopy analysis; type: functional; conditions: time hrs 2.5-5.5
Paracentrotus lividus [22] = test: Antimitotic activity against sea urchin embryo assessed as cleavage alteration measured 2.5 to 5.5 hrs post-fertilization using compound stored for 1 month in 96% EtOH at room temperature by light microscopy analysis; type: functional; conditions: time hrs 2.5-5.5
Paracentrotus lividus [23] = test: Antimitotic activity against sea urchin embryo assessed as cleavage alteration measured 2.5 to 5.5 hrs post-fertilization using compound stored for 2 days in 96% EtOH at room temperature by light microscopy analysis; type: functional; conditions: time hrs 2.5-5.5

Nc1ncnc2c1ccn2[C@@H]1O[C@H](CO)[C@@H](O)[C@H]1O [TUBERCIDIN]
IC50 (DU-145): 256 nM
IC50 (A549): 44 nM
IC50 (SK-OV-3): 131 nM
IC50 (A-375): 43 nM
IC50 (HCT-116): 82 nM
IC50 (PC-3): 76 nM
IC50 (HFF): 790 nM
IC50 (T47D): 13 nM

NCCCC(O)(P(=O)(O)O)P(=O)(O)O [ALENDRONIC ACID]
IC50 (MCF7): 69500 nM

COc1cccc(NC(=O)C(=O)c2c[nH]c3cc(F)ccc23)c1
EC (Paracentrotus lividus [1]): >4 µM
EC (Paracentrotus lividus [2]): > 4 µM
EC (Paracentrotus lividus [3]): 0.2 µM

O=P(O)(O)C(O)(Cc1cccnc1)P(=O)(O)O [RISEDRONIC ACID]
IC50 (MCF7): 248000 nM

O=C(Nc1ccc2c(c1)OCCO2)C(=O)c1c[nH]c2cc(F)ccc12
EC (Paracentrotus lividus [1]): 0.02 µM
EC (Paracentrotus lividus [2]): 0.5 µM
EC (Paracentrotus lividus [3]): 0.005 µM

O=C(Nc1ccc2c(c1)OCCO2)C(=O)c1c[nH]c2ccccc12
EC (Paracentrotus lividus [1]): 0.005 µM
EC (Paracentrotus lividus [2]): 0.02 µM
EC (Paracentrotus lividus [3]): 0.002 µM

O=C(Nc1ccncc1)C(=O)c1cn(Cc2ccc(Cl)cc2)c2ccccc12 [INDIBULIN]
IC50 (DU-145): 50 nM
IC50 (A549): 398 nM
CAC [4]: 0.00039 mg/mL
EC (Paracentrotus lividus [5]): 0.01 µM
IC50 (SK-OV-3): 200 nM
IC50 (HCT-116): 50 nM
EC (Paracentrotus lividus [2]): 0.1 µM
IC50 (PC-3): 40 nM
EC (Paracentrotus lividus [6]): 0.02 µM
IC50 (T47D): 40 nM

COc1ccc(NC(=O)C(=O)c2c[nH]c3ccccc23)cc1
EC (Paracentrotus lividus [1]): 0.005 µM
EC (Paracentrotus lividus [2]): 0.2 µM
EC (Paracentrotus lividus [3]): 0.001 µM

COc1ccc(NC(=O)C(=O)c2cn(CC(P(=O)([O-])[O-])P(=O)([O-])[O-])c3ccccc23)cc1.[Na+].[Na+].[Na+].[Na+]
solubility [7]: 10000 µg/mL

NCCC(O)(P(=O)(O)O)P(=O)(O)O [PAMIDRONIC ACID]
IC50 (MCF7): 22900 nM
IC50 [8]: 147000 nM

CCOP(=O)(OCC)C(Cn1cc(C(=O)C(=O)Nc2ccc3c(c2)OCCO3)c2ccccc21)P(=O)(OCC)OCC
EC (Paracentrotus lividus [9]): 0.5 µM
EC (Paracentrotus lividus [2]): 0.1 µM
EC (Paracentrotus lividus [10]): 0.2 µM

CCOP(=O)(OCC)C(Cn1cc(C(=O)C(=O)Nc2ccc(OC)cc2)c2ccc(F)cc21)P(=O)(OCC)OCC
EC (Paracentrotus lividus [9]): 0.5 µM
EC (Paracentrotus lividus [2]): 0.5 µM
EC (Paracentrotus lividus [10]): 0.2 µM

O=P(O)(O)C(O)(Cn1ccnc1)P(=O)(O)O [ZOLEDRONIC ACID]
IC50 (SiHa): 10000 nM
IC50 (HeLa): 10000 nM
IC50 (PANC-1): 10000 nM
IC50 (BXPC-3): 10000 nM
IC50 (Ca-Ski): 10000 nM
IC50 (CFPAC-1): 10000 nM

COc1ccc(NC(=O)C(=O)c2c[nH]c3cc(F)ccc23)cc1
EC (Paracentrotus lividus [1]): 0.005 µM
EC (Paracentrotus lividus [2]): 1 µM
EC (Paracentrotus lividus [3]): 0.001 µM

COc1ccc(NC(=O)C(=O)c2cn(CC(P(=O)(O)O)P(=O)(O)O)c3ccccc23)cc1 [listing 1 of 2 here]
EC (Paracentrotus lividus [2]): 0.005 µM

COc1ccc(NC(=O)C(=O)c2cn(CC(P(=O)(O)O)P(=O)(O)O)c3ccccc23)cc1 [listing 2 of 2 here]
Ratio IC50 [11]: 70
IC50 (DU-145): 478 nM
IC50 (A549): 223 nM
EC (Paracentrotus lividus [5]): 0.001 µM
IC50 (SK-OV-3): 3230 nM
IC50 (A-375): 34 nM
IC50 (HCT-116): 222 nM
IC50 (PC-3): 7540 nM
IC50 (HFF): 2390 nM
EC (Paracentrotus lividus [6]): 0.002 µM
IC50 (T47D): 658 nM

CCOP(=O)(OCC)C(Cn1cc(C(=O)C(=O)O)c2ccc(F)cc21)P(=O)(OCC)OCC
EC (Paracentrotus lividus [5]): >4 µM
EC (Paracentrotus lividus [2]): > 4 µM
EC (Paracentrotus lividus [6]): >4 µM

CCOP(=O)(OCC)C(Cn1cc(C(=O)C(=O)Nc2ccc3c(c2)OCCO3)c2ccc(F)cc21)P(=O)(OCC)OCC
EC (Paracentrotus lividus [12]): 0.02 µM
EC (Paracentrotus lividus [13]): 0.05 µM
EC (Paracentrotus lividus [14]): <0.01 µM
EC (Paracentrotus lividus [15]): <0.02 µM
EC (Paracentrotus lividus [16]): 0.01 µM
EC (Paracentrotus lividus [9]): 0.5 µM
EC (Paracentrotus lividus [2]): 0.1 µM
EC (Paracentrotus lividus [17]): 0.02 µM
EC (Paracentrotus lividus [10]): 0.2 µM

CCOP(=O)(OCC)C(Cn1cc(C(=O)C(=O)Nc2ccc(OC)cc2)c2ccccc21)P(=O)(OCC)OCC
EC (Paracentrotus lividus [18]): 0.005 µM
EC (Paracentrotus lividus [19]): 0.02 µM
EC (Paracentrotus lividus [9]): 0.5 µM
EC (Paracentrotus lividus [20]): 0.005 µM
EC (Paracentrotus lividus [21]): 0.1 µM
EC (Paracentrotus lividus [22]): 0.002 µM
EC (Paracentrotus lividus [2]): 0.2 µM
EC (Paracentrotus lividus [10]): 0.2 µM
EC (Paracentrotus lividus [23]): 0.02 µM

CCOP(=O)(OCC)C(Cn1cc(C(=O)C(=O)Nc2cccc(OC)c2)c2ccc(F)cc21)P(=O)(OCC)OCC
EC (Paracentrotus lividus [9]): 1 µM
EC (Paracentrotus lividus [2]): > 4 µM
EC (Paracentrotus lividus [10]): >4 µM
